Consider 3 compounds from ChEMBL document CHEMBL1909046, “DrugMatrix in vitro pharmacology data”.

Chain of Mitogen-activated protein kinase 1 (P28482 whole entry): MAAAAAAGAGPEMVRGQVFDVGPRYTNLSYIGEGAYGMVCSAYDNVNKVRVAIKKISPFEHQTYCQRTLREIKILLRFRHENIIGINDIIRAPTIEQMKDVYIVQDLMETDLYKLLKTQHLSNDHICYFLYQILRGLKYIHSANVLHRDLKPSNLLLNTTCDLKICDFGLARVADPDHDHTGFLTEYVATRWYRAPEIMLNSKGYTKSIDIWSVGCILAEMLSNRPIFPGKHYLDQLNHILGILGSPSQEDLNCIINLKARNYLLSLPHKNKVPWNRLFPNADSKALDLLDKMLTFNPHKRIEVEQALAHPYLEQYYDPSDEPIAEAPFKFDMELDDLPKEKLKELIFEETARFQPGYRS
Chain of Melanocortin receptor 3 (P41968 whole entry): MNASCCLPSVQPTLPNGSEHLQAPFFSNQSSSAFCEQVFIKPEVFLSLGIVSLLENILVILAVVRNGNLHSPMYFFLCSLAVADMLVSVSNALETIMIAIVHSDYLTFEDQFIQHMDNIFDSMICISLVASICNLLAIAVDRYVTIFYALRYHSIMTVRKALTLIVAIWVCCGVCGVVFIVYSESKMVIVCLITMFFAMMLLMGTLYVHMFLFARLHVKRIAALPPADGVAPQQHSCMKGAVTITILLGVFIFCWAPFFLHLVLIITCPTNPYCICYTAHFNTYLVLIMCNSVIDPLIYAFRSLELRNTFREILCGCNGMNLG
Chain of Prostaglandin G/H synthase 1 (P23219 whole entry): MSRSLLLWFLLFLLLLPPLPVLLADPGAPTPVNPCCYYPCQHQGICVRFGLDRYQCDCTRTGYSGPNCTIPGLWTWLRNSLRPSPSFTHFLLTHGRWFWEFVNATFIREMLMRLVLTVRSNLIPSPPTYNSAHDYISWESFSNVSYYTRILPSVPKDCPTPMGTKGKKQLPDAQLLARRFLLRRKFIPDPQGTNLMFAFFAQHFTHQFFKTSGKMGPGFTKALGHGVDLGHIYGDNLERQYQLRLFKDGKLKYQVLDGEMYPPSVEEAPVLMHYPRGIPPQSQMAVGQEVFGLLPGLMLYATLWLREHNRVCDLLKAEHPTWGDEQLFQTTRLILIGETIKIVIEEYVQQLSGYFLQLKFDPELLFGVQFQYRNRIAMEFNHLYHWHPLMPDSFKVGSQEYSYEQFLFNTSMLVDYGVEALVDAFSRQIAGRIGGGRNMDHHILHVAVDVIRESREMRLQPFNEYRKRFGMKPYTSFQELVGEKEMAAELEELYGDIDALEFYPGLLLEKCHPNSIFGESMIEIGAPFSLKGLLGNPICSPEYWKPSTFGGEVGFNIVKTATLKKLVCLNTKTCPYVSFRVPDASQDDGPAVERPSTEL

The target in one assay is T1, Interstitial collagenase (Homo sapiens, UniProt P03956).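 Also: MMP-1 enzyme inhibition assay using a peptide substrate; in other assays of this panel Not Active means under 50% inhibition at 10 µM.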
T1 sequence (P03956 whole entry): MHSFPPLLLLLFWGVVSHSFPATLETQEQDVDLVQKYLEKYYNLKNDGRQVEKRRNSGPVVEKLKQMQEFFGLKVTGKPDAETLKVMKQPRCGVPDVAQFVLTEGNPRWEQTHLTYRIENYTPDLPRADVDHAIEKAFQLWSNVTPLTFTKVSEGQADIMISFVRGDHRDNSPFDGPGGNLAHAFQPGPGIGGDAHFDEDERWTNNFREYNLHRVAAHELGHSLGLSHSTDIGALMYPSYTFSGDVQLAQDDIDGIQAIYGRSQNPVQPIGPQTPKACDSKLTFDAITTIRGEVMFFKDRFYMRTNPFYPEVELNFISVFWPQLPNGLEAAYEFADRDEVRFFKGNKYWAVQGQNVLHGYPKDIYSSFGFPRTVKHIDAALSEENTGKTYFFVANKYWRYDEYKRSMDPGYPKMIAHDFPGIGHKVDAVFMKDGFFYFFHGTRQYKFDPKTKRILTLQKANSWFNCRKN
Test: not given
The assay is classed as tissue-based, Rheumatoid synovial fibroblasts.
Conditions: not given
For the compound `Cn1cnc([N+](=O)[O-])c1Sc1ncnc2nc[nH]c12` [AZATHIOPRINE], the IC50 entry was “Not Active”.
`CC(/C=C1\SC(=S)N(CC(=O)O)C1=O)=C\c1ccccc1`: the IC50 entry is “Not Active”.
Still for that read-out and setting: with `N=C(N)NCCCCNC(=N)N.O=S(=O)(O)O` [ARCAINE SULFATE] the entry was “Not Active”.

For a further assay, the target named is T2, 3-hydroxy-3-methylglutaryl-coenzyme A reductase (Homo sapiens, UniProt P04035).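 Also: enzyme inhibition assay of HMG-CoA reductase using radiolabeled [14C]HMG-CoA as substrate; in other assays of this panel Not Active means under 50% inhibition at 10 µM.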
T2 sequence (P04035 whole entry): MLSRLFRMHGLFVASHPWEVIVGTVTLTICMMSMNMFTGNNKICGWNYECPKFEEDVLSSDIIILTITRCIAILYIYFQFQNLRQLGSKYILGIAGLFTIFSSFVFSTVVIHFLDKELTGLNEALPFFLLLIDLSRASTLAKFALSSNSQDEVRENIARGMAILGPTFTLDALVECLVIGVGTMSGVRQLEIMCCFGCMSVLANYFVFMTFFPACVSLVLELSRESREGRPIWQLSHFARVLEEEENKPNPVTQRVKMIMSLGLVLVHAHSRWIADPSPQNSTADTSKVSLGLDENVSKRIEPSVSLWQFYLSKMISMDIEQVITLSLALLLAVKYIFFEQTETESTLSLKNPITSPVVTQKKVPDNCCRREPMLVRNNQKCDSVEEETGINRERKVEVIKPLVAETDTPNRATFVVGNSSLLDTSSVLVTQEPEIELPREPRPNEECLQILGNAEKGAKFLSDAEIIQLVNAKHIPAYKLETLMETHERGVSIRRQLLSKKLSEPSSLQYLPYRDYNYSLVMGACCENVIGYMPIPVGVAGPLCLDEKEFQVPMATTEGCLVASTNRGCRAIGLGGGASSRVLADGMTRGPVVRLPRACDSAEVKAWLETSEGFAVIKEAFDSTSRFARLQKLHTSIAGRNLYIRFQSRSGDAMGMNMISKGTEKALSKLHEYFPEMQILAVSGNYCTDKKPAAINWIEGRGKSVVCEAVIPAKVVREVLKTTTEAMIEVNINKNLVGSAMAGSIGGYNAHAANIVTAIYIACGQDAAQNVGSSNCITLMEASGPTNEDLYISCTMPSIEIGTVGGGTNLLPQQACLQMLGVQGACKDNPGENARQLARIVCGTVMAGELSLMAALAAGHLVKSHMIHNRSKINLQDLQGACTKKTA
Test: not given
Conditions: not given
Set-up: species or system Escherichia coli.
Turning to `Cn1cnc([N+](=O)[O-])c1Sc1ncnc2nc[nH]c12` [AZATHIOPRINE], the IC50 entry was “Not Active”.
Still for that read-out and setting: then `CC(/C=C1\SC(=S)N(CC(=O)O)C1=O)=C\c1ccccc1`, with “Not Active”; and `N=C(N)NCCCCNC(=N)N.O=S(=O)(O)O` [ARCAINE SULFATE], with “Not Active”.

The target of the next assay is T3, Adenosine receptor A1 (Homo sapiens, UniProt P30542).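 Also: radioligand binding assay at the adenosine A1 receptor, with DPCPX serving as the labelled ligand; in other assays of this panel Not Active means under 50% inhibition at 10 µM.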
T3 sequence (P30542 whole entry): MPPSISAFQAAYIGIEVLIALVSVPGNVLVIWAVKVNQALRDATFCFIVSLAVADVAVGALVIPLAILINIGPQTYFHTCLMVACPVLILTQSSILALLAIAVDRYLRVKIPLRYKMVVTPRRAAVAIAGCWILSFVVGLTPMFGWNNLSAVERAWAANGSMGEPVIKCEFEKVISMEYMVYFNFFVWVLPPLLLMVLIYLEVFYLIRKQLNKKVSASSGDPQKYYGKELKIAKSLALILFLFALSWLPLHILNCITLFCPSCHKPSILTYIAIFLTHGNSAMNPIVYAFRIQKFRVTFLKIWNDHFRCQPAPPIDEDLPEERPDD
Test: not given
Particulars: cho. The assay is classed as cell membranes, CHO, Membrane.
For the compound `Cn1cnc([N+](=O)[O-])c1Sc1ncnc2nc[nH]c12` [AZATHIOPRINE], the IC50 result is “Not Active”.
On the same count and under the same terms, with `CC(/C=C1\SC(=S)N(CC(=O)O)C1=O)=C\c1ccccc1` the entry was “Not Active”; with `N=C(N)NCCCCNC(=N)N.O=S(=O)(O)O` [ARCAINE SULFATE], “Not Active”.

The target of another assay is T4, Alpha-1D adrenergic receptor (Homo sapiens, UniProt P25100). Also: in other assays of this panel Not Active means under 50% inhibition at 10 µM.
T4 sequence (P25100 whole entry): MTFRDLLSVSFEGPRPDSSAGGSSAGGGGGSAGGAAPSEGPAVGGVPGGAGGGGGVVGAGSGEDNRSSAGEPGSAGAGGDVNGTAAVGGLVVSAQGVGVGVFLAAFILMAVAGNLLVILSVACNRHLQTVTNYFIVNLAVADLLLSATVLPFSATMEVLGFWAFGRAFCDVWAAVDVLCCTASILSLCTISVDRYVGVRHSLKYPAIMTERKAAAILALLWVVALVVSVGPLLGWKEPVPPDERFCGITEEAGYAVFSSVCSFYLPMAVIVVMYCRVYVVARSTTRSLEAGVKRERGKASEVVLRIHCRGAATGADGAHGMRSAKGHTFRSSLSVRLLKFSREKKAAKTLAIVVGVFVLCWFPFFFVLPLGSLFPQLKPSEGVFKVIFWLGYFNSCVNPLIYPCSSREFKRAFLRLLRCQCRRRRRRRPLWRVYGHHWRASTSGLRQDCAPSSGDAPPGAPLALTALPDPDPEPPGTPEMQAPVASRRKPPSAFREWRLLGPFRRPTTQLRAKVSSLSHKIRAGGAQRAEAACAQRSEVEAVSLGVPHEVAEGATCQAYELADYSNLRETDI
Test: not given
In kind it is cell membranes, HEK293, Membrane. As to conditions: hek293.
Take `Cn1cnc([N+](=O)[O-])c1Sc1ncnc2nc[nH]c12` [AZATHIOPRINE]: the IC50 result was “Not Active”.
The same measure, in the same setting: with `CC(/C=C1\SC(=S)N(CC(=O)O)C1=O)=C\c1ccccc1` the entry was “Not Active”.
On the same count and under the same terms, with `N=C(N)NCCCCNC(=N)N.O=S(=O)(O)O` [ARCAINE SULFATE] the entry was “Not Active”.

Test system in a further assay: not listed separately
Put plainly: DRUGMATRIX: Calcium Channel Type L, Phenylalkylamine radioligand binding (ligand: [3H] (-)-Desmethoxyverapamil (D-888)). In kind it is cell membranes, Rattus norvegicus, Wistar, Brain, Membrane. As to conditions: Not Active = under 50% inhibition at 10 µM.
With `Cn1cnc([N+](=O)[O-])c1Sc1ncnc2nc[nH]c12` [AZATHIOPRINE], the IC50 result is “Not Active” and the Ki entry is recorded as “Not Active”.
Take `CC(/C=C1\SC(=S)N(CC(=O)O)C1=O)=C\c1ccccc1`: the IC50 entry was “Not Active” and the Ki result is “Not Active”.
As to `N=C(N)NCCCCNC(=N)N.O=S(=O)(O)O` [ARCAINE SULFATE], the IC50 entry was “Not Active” and the Ki result is on record as “Not Active”.

A further assay has as its target Prostaglandin G/H synthase 1 (Homo sapiens, UniProt P23219). Nature of the assay: biochemical. Particulars: platelet. In kind it is tissue-based, Platelet.
`Cn1cnc([N+](=O)[O-])c1Sc1ncnc2nc[nH]c12` [AZATHIOPRINE]: the IC50 entry is on record as “Not Active”.
Still for that read-out and setting: with `CC(/C=C1\SC(=S)N(CC(=O)O)C1=O)=C\c1ccccc1` the entry was “Not Active”; with `N=C(N)NCCCCNC(=N)N.O=S(=O)(O)O` [ARCAINE SULFATE], “Not Active”.

Test system in another assay: not listed separately
Put plainly: DRUGMATRIX: Phosphodiesterase PDE4 enzyme inhibition (substrate: [3H]cAMP + cAMP). As to conditions: u-937; Not Active = under 50% inhibition at 10 µM.
With `Cn1cnc([N+](=O)[O-])c1Sc1ncnc2nc[nH]c12` [AZATHIOPRINE], the IC50 entry is reported as “Not Active” and the Ki entry is recorded as “Not Active”.
As to `CC(/C=C1\SC(=S)N(CC(=O)O)C1=O)=C\c1ccccc1`, the IC50 entry is “Not Active” and the Ki result is given as “Not Active”.
Consider `N=C(N)NCCCCNC(=N)N.O=S(=O)(O)O` [ARCAINE SULFATE], for which the IC50 entry is “Not Active” and the Ki entry was “Not Active”.

Test system in a further assay: not listed separately
Nature of the assay: DRUGMATRIX: Glutamate, NMDA, Phencyclidine radioligand binding (ligand: [3H] TCP). The assay is classed as cell membranes, Rattus norvegicus, Wistar, Cerebral cortex, Membrane. Particulars: Not Active = under 50% inhibition at 10 µM.
Turning to `Cn1cnc([N+](=O)[O-])c1Sc1ncnc2nc[nH]c12` [AZATHIOPRINE], the IC50 result was “Not Active” and the Ki result was “Not Active”.
On to `CC(/C=C1\SC(=S)N(CC(=O)O)C1=O)=C\c1ccccc1`, for which the IC50 entry is given as “Not Active” and the Ki entry was “Not Active”.
As for `N=C(N)NCCCCNC(=N)N.O=S(=O)(O)O` [ARCAINE SULFATE], the IC50 entry is “Not Active” and the Ki result was “Not Active”.

A further assay deals with Platelet-activating factor receptor (Homo sapiens, UniProt P25105). Nature of the assay: biochemical. The assay is classed as tissue-based. As to conditions: platelet.
Chain of Platelet-activating factor receptor (P25105 whole entry): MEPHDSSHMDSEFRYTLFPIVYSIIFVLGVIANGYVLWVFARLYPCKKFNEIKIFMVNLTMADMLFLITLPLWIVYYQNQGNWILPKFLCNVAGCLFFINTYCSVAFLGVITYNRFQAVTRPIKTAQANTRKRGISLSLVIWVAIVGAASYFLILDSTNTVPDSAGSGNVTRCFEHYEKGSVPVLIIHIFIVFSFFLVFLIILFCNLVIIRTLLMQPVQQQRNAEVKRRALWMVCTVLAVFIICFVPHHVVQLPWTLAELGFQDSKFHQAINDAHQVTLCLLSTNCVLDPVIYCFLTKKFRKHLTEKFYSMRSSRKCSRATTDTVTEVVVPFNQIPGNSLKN
In the case of `Cn1cnc([N+](=O)[O-])c1Sc1ncnc2nc[nH]c12` [AZATHIOPRINE], the IC50 result is recorded as “Not Active”.
Still for that read-out and setting: then `CC(/C=C1\SC(=S)N(CC(=O)O)C1=O)=C\c1ccccc1`, with “Not Active”; and `N=C(N)NCCCCNC(=N)N.O=S(=O)(O)O` [ARCAINE SULFATE], with “Not Active”.

In another assay the target is D(3) dopamine receptor (Homo sapiens, UniProt P35462). Put plainly: DRUGMATRIX: Dopamine D3 radioligand binding (ligand: [3H] Spiperone). In kind it is cell membranes, CHO, Membrane. As to conditions: cho.
Chain of D(3) dopamine receptor (P35462 whole entry): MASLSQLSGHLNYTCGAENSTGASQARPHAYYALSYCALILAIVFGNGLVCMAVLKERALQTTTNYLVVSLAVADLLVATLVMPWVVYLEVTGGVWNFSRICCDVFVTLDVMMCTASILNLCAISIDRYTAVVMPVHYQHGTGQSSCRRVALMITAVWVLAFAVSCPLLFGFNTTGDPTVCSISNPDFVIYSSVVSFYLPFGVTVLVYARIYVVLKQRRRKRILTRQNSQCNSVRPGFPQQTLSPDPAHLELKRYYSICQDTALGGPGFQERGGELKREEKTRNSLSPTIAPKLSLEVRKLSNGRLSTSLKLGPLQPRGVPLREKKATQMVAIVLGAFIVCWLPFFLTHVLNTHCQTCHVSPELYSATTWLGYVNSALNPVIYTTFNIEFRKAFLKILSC
In the case of `Cn1cnc([N+](=O)[O-])c1Sc1ncnc2nc[nH]c12` [AZATHIOPRINE], the IC50 entry was “Not Active”.
Same read-out and setting: with `CC(/C=C1\SC(=S)N(CC(=O)O)C1=O)=C\c1ccccc1` the entry was “Not Active”.
On to `N=C(N)NCCCCNC(=N)N.O=S(=O)(O)O` [ARCAINE SULFATE], for which the IC50 result was “Not Active”.

A further assay concerns the target Melanocortin receptor 3 (Homo sapiens, UniProt P41968). Also: in other assays of this panel Not Active means under 50% inhibition at 10 µM.
Test: not given
The assay is classed as cell membranes, Membrane. Particulars: hek293.
Turning to `Cn1cnc([N+](=O)[O-])c1Sc1ncnc2nc[nH]c12` [AZATHIOPRINE], the IC50 entry is given as “Not Active”.
The same measure, in the same setting: with `CC(/C=C1\SC(=S)N(CC(=O)O)C1=O)=C\c1ccccc1` the entry was “Not Active”; with `N=C(N)NCCCCNC(=N)N.O=S(=O)(O)O` [ARCAINE SULFATE], “Not Active”.

A further assay addresses Mitogen-activated protein kinase 1 (Homo sapiens, UniProt P28482). Nature of the assay: DRUGMATRIX: Protein Serine/Threonine Kinase, ERK2 enzyme inhibition (substrate: Myelin Basic Protein). Set-up: species or system Escherichia coli. As to conditions: Not Active = under 50% inhibition at 10 µM.
As to `Cn1cnc([N+](=O)[O-])c1Sc1ncnc2nc[nH]c12` [AZATHIOPRINE], the IC50 result was “Not Active”.
Consider `CC(/C=C1\SC(=S)N(CC(=O)O)C1=O)=C\c1ccccc1`, for which the IC50 result is reported as “Not Active”.
On the same count and under the same terms, then `N=C(N)NCCCCNC(=N)N.O=S(=O)(O)O` [ARCAINE SULFATE], with “Not Active”.

Test system in the next assay: not listed separately
Put plainly: DRUGMATRIX: Glutamate, NMDA, Agonism radioligand binding (ligand: [3H] CGP-39653). As to conditions: Not Active = under 50% inhibition at 10 µM. In kind it is cell membranes, Rattus norvegicus, Wistar, Cerebral cortex, Membrane.
In the case of `Cn1cnc([N+](=O)[O-])c1Sc1ncnc2nc[nH]c12` [AZATHIOPRINE], the IC50 entry is “Not Active” and the Ki result is “Not Active”.
On to `CC(/C=C1\SC(=S)N(CC(=O)O)C1=O)=C\c1ccccc1`, for which the IC50 entry is “Not Active” and the Ki entry was “Not Active”.
With `N=C(N)NCCCCNC(=N)N.O=S(=O)(O)O` [ARCAINE SULFATE], the IC50 entry is “Not Active” and the Ki entry was “Not Active”.
